Experimental data from ChEMBL document CHEMBL5154694, “Fascaplysin derivatives binding to DNA via unique cationic five-ring coplanar backbone showed potent antimicrobial/antibiofilm activity against MRSA in vitro and in vivo” (Eur J Med Chem, 2022).
The source made the active and inactive calls. The calls are words filed in the database; no cut-off is given here.

Key:
Staphylococcus aureus [1] = assay: Antibacterial activity against methicillin-resistant Staphylococcus aureus ATCC 4330 after 16 to 18 hrs by microbroth dilution method; assay type: functional; settings: time 16-18 hrs
Staphylococcus aureus [2] = assay: Bactericidal activity against methicillin-resistant Staphylococcus aureus ATCC 4330 assessed as reduction in bacterial counts at 2X MIC within 0.5 hrs by time-kill kinetic assay; assay type: functional
Staphylococcus aureus [3] = assay: Bactericidal activity against methicillin-resistant Staphylococcus aureus ATCC 4330 assessed as reduction in bacterial counts at 4X MIC by time-kill kinetic assay; assay type: functional, organism-based
Staphylococcus aureus [4] = assay: Bactericidal activity against methicillin-resistant Staphylococcus aureus ATCC 4330 assessed as reduction in bacterial counts at 1 to 4X MIC within 24 hrs by time-kill kinetic assay; assay type: functional
[5] = Hemolytic activity in mouse erythrocytes assessed as hemolysis at 12.5 ug/ml relative to control; assay type: toxicity, cell-based, Erythrocyte; settings: at 12.5 µg/mL, read-out: Activity
[6] = Cytotoxicity against mouse RAW264.7 cells assessed as cell survival at 12.5 ug/ml incubated for 24 hrs by CCK-8 assay; assay type: toxicity, cell-based; settings: at 12.5 µg/mL, read-out: Activity
[7] = Cytotoxicity against mouse RAW264.7 cells assessed as cell survival at 25 ug/ml incubated for 24 hrs by CCK-8 assay; assay type: toxicity, cell-based; settings: at 25 µg/mL, read-out: Activity
[8] = Cytotoxicity against mouse RAW264.7 cells assessed as cell survival at 50 ug/ml incubated for 24 hrs by CCK-8 assay; assay type: toxicity, cell-based; settings: at 50 µg/mL, read-out: Activity
Staphylococcus aureus [9] = assay: Antibiofilm activity against methicillin-resistant Staphylococcus aureus ATCC 4330 assessed as inhibition of biofilm formation at 50 ug/ml after 24 hrs by crystal violet staining based assay relative to control; assay type: functional
Staphylococcus aureus [10] = assay: Antibiofilm activity against methicillin-resistant Staphylococcus aureus ATCC 4330 assessed as fold change in upregulation of AgrA mRNA expression at 4X MIC after 2 hrs by qRT-PCR assay; assay type: functional
Staphylococcus aureus [11] = assay: Antimicrobial activity against methicillin-resistant Staphylococcus aureus ATCC 4330 infected in female ICR peritonitis mouse model assessed as increase in survival rate of mouse at 10 mg/kg, ip; assay type: functional
Staphylococcus aureus [12] = assay: Antimicrobial activity against methicillin-resistant Staphylococcus aureus ATCC 4330 infected in female ICR peritonitis mouse model assessed as survival time of mouse at 10 mg/kg, ip; assay type: functional
[13] = Toxicity in female ICR peritonitis mouse model infected with methicillin-resistant Staphylococcus aureus ATCC 4330 assessed as lung damage at 10 mg/kg, ip; assay type: organism-based; settings: in vivo
[14] = Toxicity in female ICR peritonitis mouse model infected with methicillin-resistant Staphylococcus aureus ATCC 4330 assessed as liver damage at 10 mg/kg, ip; assay type: organism-based; settings: in vivo
[15] = Toxicity in female ICR peritonitis mouse model infected with methicillin-resistant Staphylococcus aureus ATCC 4330 assessed as kidney damage at 10 mg/kg, ip; assay type: organism-based; settings: in vivo
Staphylococcus aureus [16] = assay: Bactericidal activity against methicillin-resistant Staphylococcus aureus ATCC 4330 assessed as inhibition of bacterial regrowth at 2X MIC after 24 hrs by time-kill kinetic assay; assay type: functional, organism-based
Staphylococcus aureus [17] = assay: Induction of membrane morphological changes in methicillin-resistant Staphylococcus aureus ATCC 4330 assessed as visible cell surface wrinkles at 4X MIC after 2 hrs by scanning electron microscopy; assay type: functional
Staphylococcus aureus [18] = assay: Induction of membrane morphological changes in methicillin-resistant Staphylococcus aureus ATCC 4330 assessed as visible cell filaments at 4X MIC after 2 hrs by scanning electron microscopy; assay type: functional
Staphylococcus aureus [19] = assay: Induction of membrane morphological changes in methicillin-resistant Staphylococcus aureus ATCC 4330 assessed as visible cell membrane disruption at 4X MIC after 2 hrs by transmission electron microscopy; assay type: functional
Staphylococcus aureus [20] = assay: Induction of membrane morphological changes in methicillin-resistant Staphylococcus aureus ATCC 4330 assessed as visible cell wall fragments at 4X MIC after 2 hrs by transmission electron microscopy; assay type: functional
Staphylococcus aureus [21] = assay: Induction of membrane morphological changes in methicillin-resistant Staphylococcus aureus ATCC 4330 assessed as ghost cells at 4X MIC after 2 hrs by transmission electron microscopy; assay type: functional
Staphylococcus aureus [22] = assay: Induction of membrane morphological changes in methicillin-resistant Staphylococcus aureus ATCC 4330 assessed as fluorescent intensity at 1 to 4X MIC measured after 30 to 120 mins by propidium iodide staining based flow cytometry assay; assay type: functional; settings: time 30-120 min
DNA [23] = assay: Inhibition of methicillin-resistant Staphylococcus aureus ATCC 4330 genomic DNA migration at 3.125 to 6.25 ug/ml measured by electrophoretic mobility assay; assay type: nucleic-acid assay; settings: dose 3.125-6.25 µg/ml
DNA [24] = assay: Binding affinity to methicillin-resistant Staphylococcus aureus ATCC 4330 DNA assessed as induction of confirmational changes at 50 ug/ml measured by Circular dichroism assay; assay type: nucleic-acid assay; settings: dose 50.0 µg/ml
Staphylococcus aureus [25] = assay: Antibiofilm activity against methicillin-resistant Staphylococcus aureus ATCC 4330 assessed as inhibition of biofilm formation at 1.56 ug/ml after 24 hrs by crystal violet staining based assay relative to control; assay type: functional
Staphylococcus aureus [26] = assay: Antibiofilm activity against methicillin-resistant Staphylococcus aureus ATCC 4330 assessed as fold change in downregulation of AgrA mRNA expression at 4X MIC after 2 hrs by qRT-PCR assay; assay type: functional
Staphylococcus aureus [27] = assay: Antimicrobial activity against methicillin-resistant Staphylococcus aureus ATCC 4330 infected in female ICR peritonitis mouse model assessed as reduction in bacteria in blood at 10 mg/kg, ip; assay type: functional
Staphylococcus aureus [28] = assay: Antibiofilm activity against methicillin-resistant Staphylococcus aureus ATCC 4330 assessed as inhibition of biofilm formation at 6.25 ug/ml after 24 hrs by crystal violet staining based assay relative to control; assay type: functional
Staphylococcus aureus [29] = assay: Induction of membrane morphological changes in methicillin-resistant Staphylococcus aureus ATCC 4330 assessed as permeable cells at 1 to 4X MIC measured after 30 to 120 mins by propidium iodide staining based flow cytometry assay; assay type: functional; settings: time 30-120 min

`NC(=O)c1ccc2[nH]c3c(C(=O)c4ccccc4Br)nccc3c2c1` gave an MIC (Staphylococcus aureus [1]) greater than 200 µg/mL.
In the case of `CN[C@H](CC(C)C)C(=O)N[C@H]1C(=O)N[C@@H](CC(N)=O)C(=O)N[C@H]2C(=O)N[C@H]3C(=O)N[C@H](C(=O)N[C@H](C(=O)O)c4cc(O)cc(O)c4-c4cc3ccc4O)[C@H](O)c3ccc(c(Cl)c3)Oc3cc2cc(c3O[C@@H]2O[C@H](CO)[C@@H](O)[C@H](O)[C@H]2O[C@H]2C[C@](C)(N)[C@H](O)[C@H](C)O2)Oc2ccc(cc2Cl)[C@H]1O` [VANCOMYCIN], the Activity (Staphylococcus aureus [2]) is reported as 0.1 log10CFU/ml, the Activity (Staphylococcus aureus [3]) is reported as “Active” and the Activity (Staphylococcus aureus [4]) is reported as 2 log10CFU/ml.
`O=C1c2ccccc2-[n+]2ccc3c([nH]c4ccccc43)c21.[Br-]` showed an MIC (Staphylococcus aureus [1]) of 0.39 µg/mL, an Activity (Staphylococcus aureus [2]) of 0 log10CFU/ml and an Activity (Staphylococcus aureus [4]) of 2 log10CFU/ml. It also gave a hemolysis at 12.5 ug/ml [5] of 0%, a viability at 24 h, 12.5 ug/ml [6] of 91.7% and a viability at 24 h, 25 ug/ml [7] of 100%. For the same compound, the viability at 24 h, 50 ug/ml [8] was 100%, the inhibition at 50 µg/mL (Staphylococcus aureus [9]) was 27.4% and the “fold change (FC)” value (Staphylococcus aureus [10]) was 1.67. The Activity (Staphylococcus aureus [11]) was 20%, the Survival (Staphylococcus aureus [12]) was 2 days and the Activity [13] was “Non-Toxic”. The Activity [14] was “Non-Toxic” and the Activity [15] was “Non-Toxic”.
For `O=C(Nc1cccc2ccccc12)c1ccc2[nH]c3c4[n+](ccc3c2c1)-c1ccccc1C4=O.[Br-]`, the MIC (Staphylococcus aureus [1]) was 0.098 µg/mL, the Activity (Staphylococcus aureus [2]) was 1.9 log10CFU/ml and the Activity (Staphylococcus aureus [3]) was “Active”. The Activity (Staphylococcus aureus [4]) was 2 log10CFU/ml, the Activity (Staphylococcus aureus [16]) was “Active” and the hemolysis at 12.5 ug/ml [5] was 0%. The viability at 24 h, 50 ug/ml [8] was 98.4%, the Activity (Staphylococcus aureus [17]) was “Active” and the Activity (Staphylococcus aureus [18]) was “Active”. For the same compound, the Activity (Staphylococcus aureus [19]) was “Active”, the Activity (Staphylococcus aureus [20]) was “Active” and the Activity (Staphylococcus aureus [21]) was “Active”. The Activity (Staphylococcus aureus [22]) was 19.3%, the “inhibition of DNA migration” value (DNA [23]) was “Active” and the Activity (DNA [24]) was “Active”. For the same compound, the inhibition at 1.56 µg/mL (Staphylococcus aureus [25]) was 78.9%, the “fold change (FC)” value (Staphylococcus aureus [26]) was 0.1 and the Activity (Staphylococcus aureus [11]) was 20%. The Survival (Staphylococcus aureus [12]) was 2 days, the Activity (Staphylococcus aureus [27]) was “Active” and the Activity [13] was “Non-Toxic”. The Activity [14] was “Non-Toxic” and the Activity [15] was “Non-Toxic”.
Work on `Cc1ccc2[nH]c3c4[n+](ccc3c2c1)-c1ccccc1C4=O.[Br-]` yielded an MIC (Staphylococcus aureus [1]) of 0.195 µg/mL, an Activity (Staphylococcus aureus [2]) of 1.7 log10CFU/ml and an Activity (Staphylococcus aureus [4]) of 2 log10CFU/ml. The hemolysis at 12.5 ug/ml [5] was 0%, the viability at 24 h, 12.5 ug/ml [6] was 17.7% and the viability at 24 h, 25 ug/ml [7] was 56.3%. For the same compound, the viability at 24 h, 50 ug/ml [8] was 69.8%, the inhibition at 6.25 µg/mL (Staphylococcus aureus [28]) was 65.4% and the “fold change (FC)” value (Staphylococcus aureus [26]) was 0.71. The Activity (Staphylococcus aureus [11]) was 20%, the Survival (Staphylococcus aureus [12]) was 2 days and the Activity (Staphylococcus aureus [27]) was 92%. The Activity [13] was “Non-Toxic”, the Activity [14] was “Non-Toxic” and the Activity [15] was “Non-Toxic”.
With `O=C(c1ccccc1Br)c1nccc2c1[nH]c1ccccc12` the MIC (Staphylococcus aureus [1]) was greater than 200 µg/mL.
For `O=C1c2ccccc2-[n+]2ccc3c([nH]c4ccccc43)c21`, the Activity (Staphylococcus aureus [3]) was “Active”, the Activity (Staphylococcus aureus [16]) was “Active” and the Activity (Staphylococcus aureus [17]) was “Active”. For the same compound, the Activity (Staphylococcus aureus [18]) was “Active”, the Activity (Staphylococcus aureus [19]) was “Active” and the Activity (Staphylococcus aureus [20]) was “Active”. For the same compound, the Activity (Staphylococcus aureus [21]) was “Active”, the Activity (Staphylococcus aureus [29]) was 1.11% and the “inhibition of DNA migration” value (DNA [23]) was “Active”. The Activity (DNA [24]) was “Active” and the Activity (Staphylococcus aureus [27]) was “Active”.
In the case of `O=C(c1ccccc1Cl)c1nccc2c1[nH]c1ccccc12`, the MIC (Staphylococcus aureus [1]) is reported as greater than 200 µg/mL.
In the case of `Cc1ccc2[nH]c3c(C(=O)c4ccccc4Cl)nccc3c2c1`, the MIC (Staphylococcus aureus [1]) is reported as greater than 200 µg/mL.
Compound `Cc1ccc2[nH]c3c(C(=O)c4ccccc4Br)nccc3c2c1` has an MIC (Staphylococcus aureus [1]) greater than 200 µg/mL.
